Test results reported in PubChem BioAssay (NCI).
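Interpolation was linear, between the two tested concentrations surrounding the appropriate level; five concentrations were tested over 48 hours in 96-well plates. Abbreviation: GI50, concentration required for 50% inhibition of growth. The concentration for full growth arrest is given as TGI.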

Legend:
Assay in all cases: NCI-60 cell line screen, 48 h
COLO 205 colon = test system: COLO 205 colon
HT29 colon = test system: HT29 colon
T-47D breast = test system: T-47D breast
UO-31 renal = test system: UO-31 renal
SK-MEL-5 melanoma = test system: SK-MEL-5 melanoma
KM12 colon = test system: KM12 colon
CAKI-1 renal = test system: CAKI-1 renal
LOX IMVI melanoma = test system: LOX IMVI melanoma
A498 renal = test system: A498 renal
NCI-H226 lung = test system: NCI-H226 lung
SK-OV-3 ovarian = test system: SK-OV-3 ovarian
PC-3 prostate = test system: PC-3 prostate
OVCAR-3 ovarian = test system: OVCAR-3 ovarian
OVCAR-5 ovarian = test system: OVCAR-5 ovarian
SF-268 CNS = test system: SF-268 CNS
NCI-H460 lung = test system: NCI-H460 lung
HCC-2998 colon = test system: HCC-2998 colon
NCI/ADR-RES ovarian = test system: NCI/ADR-RES ovarian
NCI-H522 lung = test system: NCI-H522 lung
UACC-257 melanoma = test system: UACC-257 melanoma
MCF7 breast = test system: MCF7 breast
CCRF-CEM leukemia = test system: CCRF-CEM leukemia
DU-145 prostate = test system: DU-145 prostate
BT-549 breast = test system: BT-549 breast
HL-60(TB) leukemia = test system: HL-60(TB) leukemia
M14 melanoma = test system: M14 melanoma
NCI-H23 lung = test system: NCI-H23 lung
SK-MEL-2 melanoma = test system: SK-MEL-2 melanoma
HCT-15 colon = test system: HCT-15 colon
HOP-92 NSCLC = test system: HOP-92 NSCLC
EKVX NSCLC = test system: EKVX NSCLC
UACC-62 melanoma = test system: UACC-62 melanoma
HS 578T breast = test system: HS 578T breast
SW-620 colon = test system: SW-620 colon
SF-539 CNS = test system: SF-539 CNS
TK-10 renal = test system: TK-10 renal
RPMI-8226 leukemia = test system: RPMI-8226 leukemia
SNB-75 CNS = test system: SNB-75 CNS
OVCAR-4 ovarian = test system: OVCAR-4 ovarian
OVCAR-8 ovarian = test system: OVCAR-8 ovarian
SN12C renal = test system: SN12C renal
MDA-MB-231 breast = test system: MDA-MB-231 breast
SK-MEL-28 melanoma = test system: SK-MEL-28 melanoma
786-0 renal = test system: 786-0 renal
SNB-19 CNS = test system: SNB-19 CNS
A549 NSCLC = test system: A549 NSCLC
U251 CNS = test system: U251 CNS
SF-295 CNS = test system: SF-295 CNS
SR leukemia = test system: SR leukemia
MDA-MB-435 = test system: MDA-MB-435
ACHN renal = test system: ACHN renal
MALME-3M melanoma = test system: MALME-3M melanoma
HCT-116 colon = test system: HCT-116 colon
K-562 leukemia = test system: K-562 leukemia
HOP-62 NSCLC = test system: HOP-62 NSCLC
IGROV1 ovarian = test system: IGROV1 ovarian
RXF 393 renal = test system: RXF 393 renal

## CN(CCNC(=O)c1[nH]nc2c1ccc1ccccc12)CCNC(=O)c1[nH]nc2c1ccc1ccccc12
COLO 205 colon
  TGI: 2.74 µM
HT29 colon
  TGI: 3.27 µM
T-47D breast
  TGI: 5.03 µM
UO-31 renal
  TGI: 29.1 µM
SK-MEL-5 melanoma
  TGI: 3.24 µM
KM12 colon
  TGI: 5.3 µM
CAKI-1 renal
  TGI: > 76.2 µM
LOX IMVI melanoma
  TGI: 3.33 µM
A498 renal
  TGI: 67.7 µM
NCI-H226 lung
  TGI: 46.5 µM
SK-OV-3 ovarian
  TGI: 30.1 µM
PC-3 prostate
  TGI: 6.8 µM
OVCAR-3 ovarian
  TGI: 6.26 µM
OVCAR-5 ovarian
  TGI: 3.71 µM
SF-268 CNS
  TGI: 4.84 µM
NCI-H460 lung
  TGI: 5.11 µM
HCC-2998 colon
  TGI: 3.61 µM
NCI/ADR-RES ovarian
  TGI: > 100 µM
NCI-H522 lung
  TGI: 3.9 µM
UACC-257 melanoma
  TGI: 56.7 µM
MCF7 breast
  TGI: 3.29 µM
CCRF-CEM leukemia
  TGI: 5 µM
DU-145 prostate
  TGI: 10.2 µM
BT-549 breast
  TGI: 53.2 µM
HL-60(TB) leukemia
  TGI: 5.95 µM
M14 melanoma
  TGI: 3.49 µM
NCI-H23 lung
  TGI: 4.09 µM
SK-MEL-2 melanoma
  TGI: 37.9 µM
HCT-15 colon
  TGI: 46.7 µM
HOP-92 NSCLC
  TGI: 18.5 µM

## C[C@]12CC[C@H](O)CC1=CC[C@@H]1[C@@H]2CC[C@]2(C)C(=O)/C(=C/c3cccc(OCCCn4ccnc4)c3)C[C@@H]12
EKVX NSCLC
  GI50: 21.1 µM
  TGI: 46.3 µM
COLO 205 colon
  GI50: 20.3 µM
  TGI: 45.8 µM
HT29 colon
  GI50: 7.53 µM
  TGI: 27 µM
UACC-62 melanoma
  GI50: 13.1 µM
  TGI: 30 µM
T-47D breast
  GI50: 12.4 µM
  TGI: 31.3 µM
UO-31 renal
  GI50: 16 µM
  TGI: 35.1 µM
SK-MEL-5 melanoma
  GI50: 11.1 µM
  TGI: 24.6 µM
HS 578T breast
  GI50: 21.5 µM
  TGI: 54.2 µM
KM12 colon
  GI50: 34 µM
  TGI: > 100 µM
SW-620 colon
  GI50: 19.7 µM
  TGI: 40.9 µM
CAKI-1 renal
  GI50: 38.4 µM
  TGI: > 100 µM
SF-539 CNS
  GI50: 18.7 µM
  TGI: 35.5 µM
TK-10 renal
  GI50: 27.9 µM
  TGI: 72 µM
LOX IMVI melanoma
  GI50: 23.1 µM
  TGI: 56.2 µM
A498 renal
  GI50: 20.5 µM
  TGI: 39.1 µM
NCI-H226 lung
  GI50: 21.4 µM
  TGI: 50.2 µM
SK-OV-3 ovarian
  GI50: 17.4 µM
  TGI: 62.7 µM
PC-3 prostate
  GI50: 15.6 µM
  TGI: 39.8 µM
OVCAR-3 ovarian
  GI50: 28.8 µM
  TGI: > 100 µM
RPMI-8226 leukemia
  GI50: 10.1 µM
  TGI: 31.6 µM
SNB-75 CNS
  GI50: 19.7 µM
  TGI: 38.4 µM
OVCAR-4 ovarian
  GI50: 19.6 µM
  TGI: 64.6 µM
OVCAR-8 ovarian
  GI50: 17.7 µM
  TGI: 32.8 µM
OVCAR-5 ovarian
  GI50: 18.1 µM
  TGI: 34.8 µM
SN12C renal
  GI50: 28.7 µM
  TGI: 88.3 µM
MDA-MB-231 breast
  GI50: 20.6 µM
  TGI: 40.4 µM
SK-MEL-28 melanoma
  GI50: 22.2 µM
  TGI: 51.5 µM
786-0 renal
  GI50: 23.2 µM
  TGI: 47.2 µM
SNB-19 CNS
  GI50: 27 µM
  TGI: 77.3 µM
A549 NSCLC
  GI50: 13.8 µM
  TGI: 28.8 µM
U251 CNS
  GI50: 24.8 µM
  TGI: 77.3 µM
SF-268 CNS
  GI50: 21.4 µM
  TGI: 55.6 µM
NCI-H460 lung
  GI50: 19.6 µM
  TGI: 43.2 µM
HCC-2998 colon
  GI50: 34.1 µM
  TGI: > 100 µM
NCI-H522 lung
  GI50: 16.6 µM
  TGI: 34.2 µM
MCF7 breast
  GI50: 23.1 µM
  TGI: 54.1 µM
SF-295 CNS
  GI50: 31.7 µM
  TGI: > 100 µM
CCRF-CEM leukemia
  GI50: 16.4 µM
  TGI: > 100 µM
SR leukemia
  GI50: 13.9 µM
  TGI: 40 µM
DU-145 prostate
  GI50: 19.9 µM
  TGI: 38.7 µM
HL-60(TB) leukemia
  GI50: 13.8 µM
  TGI: 44.7 µM
M14 melanoma
  GI50: 18.5 µM
  TGI: 33.2 µM
MDA-MB-435
  GI50: 36.8 µM
  TGI: > 100 µM
NCI-H23 lung
  GI50: 15.5 µM
  TGI: 32.3 µM
ACHN renal
  GI50: 16.7 µM
  TGI: 38.6 µM
MALME-3M melanoma
  GI50: 23.9 µM
  TGI: 59.1 µM
SK-MEL-2 melanoma
  GI50: 19.9 µM
  TGI: 51 µM
HCT-116 colon
  GI50: 15 µM
  TGI: 30.2 µM
HCT-15 colon
  GI50: 16.8 µM
  TGI: 40.4 µM
K-562 leukemia
  GI50: 16 µM
  TGI: 58.1 µM
HOP-92 NSCLC
  GI50: 12.6 µM
  TGI: 32.3 µM
HOP-62 NSCLC
  GI50: 20.4 µM
  TGI: 38.2 µM
IGROV1 ovarian
  GI50: 19.4 µM
  TGI: 46.2 µM

## COc1cc2c(-c3nc4cc(Cl)c(F)cc4s3)cc(=O)oc2c(C)c1OC
COLO 205 colon
  GI50: 1.66 µM
  TGI: 3.32 µM
UACC-62 melanoma
  GI50: 1.3 µM
  TGI: 2.69 µM
UO-31 renal
  GI50: 0.154 µM
  TGI: 0.339 µM
SK-MEL-5 melanoma
  GI50: 1.23 µM
  TGI: 2.56 µM
CAKI-1 renal
  GI50: 0.307 µM
  TGI: 0.78 µM
SF-539 CNS
  GI50: 0.183 µM
  TGI: 0.379 µM
TK-10 renal
  GI50: 1.96 µM
  TGI: 3.47 µM
A498 renal
  GI50: 1.5 µM
  TGI: 2.87 µM
NCI-H226 lung
  GI50: 1.72 µM
  TGI: 3.99 µM
SK-OV-3 ovarian
  GI50: 1.63 µM
  TGI: 3.03 µM
SNB-75 CNS
  GI50: 0.62 µM
  TGI: 1.92 µM
OVCAR-4 ovarian
  GI50: 1.65 µM
  TGI: 3.16 µM
OVCAR-8 ovarian
  GI50: 1.5 µM
  TGI: 3.47 µM
OVCAR-5 ovarian
  GI50: 1.8 µM
  TGI: 3.39 µM
SK-MEL-28 melanoma
  GI50: 1.81 µM
  TGI: 3.49 µM
786-0 renal
  GI50: 1.02 µM
  TGI: 2.21 µM
U251 CNS
  GI50: 1.29 µM
  TGI: 2.66 µM
SF-268 CNS
  GI50: 1.14 µM
  TGI: 3.24 µM
RXF 393 renal
  GI50: 1.55 µM
  TGI: 3.08 µM
NCI-H460 lung
  GI50: 2.11 µM
  TGI: 4.61 µM
HCC-2998 colon
  GI50: 2.4 µM
  TGI: 4.29 µM
NCI-H522 lung
  GI50: 0.176 µM
  TGI: 0.354 µM
UACC-257 melanoma
  GI50: 1.38 µM
  TGI: 2.89 µM
SF-295 CNS
  GI50: 1.01 µM
  TGI: 2.34 µM
DU-145 prostate
  GI50: 1.62 µM
  TGI: 3.05 µM
BT-549 breast
  GI50: 0.648 µM
  TGI: 1.82 µM
MDA-MB-435
  GI50: 1.77 µM
  TGI: 3.76 µM
ACHN renal
  GI50: 1.36 µM
  TGI: 2.81 µM
MALME-3M melanoma
  GI50: 0.311 µM
  TGI: 1.14 µM
SK-MEL-2 melanoma
  GI50: 2.07 µM
  TGI: 3.9 µM
HOP-92 NSCLC
  GI50: 0.498 µM
  TGI: 2.16 µM
HOP-62 NSCLC
  GI50: 1.67 µM
  TGI: 3.16 µM
IGROV1 ovarian
  GI50: 0.207 µM
  TGI: 0.662 µM

## FC(F)(F)c1cc(Nc2ccc3c(OCCCN4CCOCC4)cccc3n2)ccc1Cl
UACC-62 melanoma
  GI50: 2.05 µM
  TGI: 4.16 µM
UO-31 renal
  GI50: 1.63 µM
  TGI: 4.29 µM
SF-539 CNS
  GI50: 1.9 µM
  TGI: 4.01 µM
TK-10 renal
  GI50: 3.49 µM
  TGI: > 100 µM
A498 renal
  GI50: 3.12 µM
  TGI: 48.3 µM
NCI-H226 lung
  GI50: 3.54 µM
  TGI: > 100 µM
PC-3 prostate
  GI50: 2.26 µM
  TGI: > 100 µM
SNB-75 CNS
  GI50: 1.89 µM
  TGI: 6.2 µM
OVCAR-4 ovarian
  GI50: 3.07 µM
  TGI: > 100 µM
OVCAR-8 ovarian
  GI50: 4.33 µM
  TGI: > 100 µM
OVCAR-5 ovarian
  GI50: 2.36 µM
  TGI: 6.24 µM
SN12C renal
  GI50: 3.35 µM
  TGI: 16.8 µM
NCI/ADR-RES ovarian
  GI50: 3.16 µM
  TGI: > 100 µM
DU-145 prostate
  GI50: 2.78 µM
  TGI: > 100 µM
BT-549 breast
  GI50: 2.43 µM
  TGI: 8.76 µM
ACHN renal
  GI50: 2.98 µM
  TGI: 10.3 µM
MALME-3M melanoma
  GI50: 1.69 µM
  TGI: 4.11 µM
HCT-116 colon
  GI50: 2.07 µM
  TGI: 4.55 µM
IGROV1 ovarian
  GI50: 3.96 µM
  TGI: 37.8 µM
